Test results taken from publication PMC8748775, “The sphingosine 1-phosphate receptor 2/4 antagonist JTE-013 elicits off-target effects on sphingolipid metabolism” (Scientific Reports, 2022).

Tests used:
S1P lyase = molecular target: T1, S1P lyase (Homo sapiens, UniProt O95470); experiment: fluorogenic S1P lyase assay in overexpressing lysate, […] DOP; format: cell-based
T1 construct: gene SGPL1; FLAG-tagged human S1P lyase overexpressed in HEK293T cells (whole cell lysate)
T1 sequence (O95470 1-568): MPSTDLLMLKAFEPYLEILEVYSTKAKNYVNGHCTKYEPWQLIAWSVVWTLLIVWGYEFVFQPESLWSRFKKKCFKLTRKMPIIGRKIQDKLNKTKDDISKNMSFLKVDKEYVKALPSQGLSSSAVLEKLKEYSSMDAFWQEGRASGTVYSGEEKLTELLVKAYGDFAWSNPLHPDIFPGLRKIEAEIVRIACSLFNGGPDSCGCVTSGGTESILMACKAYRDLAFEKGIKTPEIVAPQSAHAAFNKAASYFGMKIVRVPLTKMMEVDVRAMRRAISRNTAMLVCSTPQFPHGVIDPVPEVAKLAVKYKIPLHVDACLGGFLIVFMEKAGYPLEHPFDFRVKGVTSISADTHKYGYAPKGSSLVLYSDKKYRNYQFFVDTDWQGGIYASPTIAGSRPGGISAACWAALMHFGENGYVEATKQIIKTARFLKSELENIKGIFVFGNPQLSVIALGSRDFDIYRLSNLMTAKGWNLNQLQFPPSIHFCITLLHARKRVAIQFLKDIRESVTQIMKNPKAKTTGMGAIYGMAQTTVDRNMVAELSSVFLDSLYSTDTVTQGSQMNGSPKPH

[1] = molecular target: T2, sphingosine kinase 1 (SK1) (Homo sapiens, UniProt Q9NYA1); experiment: in vitro radiometric [γ-32P]ATP sphingosine kinase assay with purified enzyme; format: biochemical
T2 construct: gene SPHK1; purified recombinant human SK1

[2] = molecular target: T3, dihydroceramide desaturase 1 (Des1) (Homo sapiens, UniProt O15121); experiment: HPLC NBD-C6-dhCer conversion; Ki from Des1-overexpressing HEK293T lysates, competitive inhibition confirmed with purified Des1-FLAG plus CYB5; format: biochemical
T3 construct: gene DEGS1; Des1-FLAG (C-terminal FLAG), expressed in HEK293T cells; with cytochrome B5 (CYB5)

[3] = molecular target: T4, sphingosine kinase 2 (SK2) (Homo sapiens, UniProt Q9NRA0); experiment: in vitro radiometric [γ-32P]ATP sphingosine kinase assay with purified enzyme; format: biochemical
T4 construct: gene SPHK2; purified recombinant human SK2
T4 sequence (Q9NRA0 1-654): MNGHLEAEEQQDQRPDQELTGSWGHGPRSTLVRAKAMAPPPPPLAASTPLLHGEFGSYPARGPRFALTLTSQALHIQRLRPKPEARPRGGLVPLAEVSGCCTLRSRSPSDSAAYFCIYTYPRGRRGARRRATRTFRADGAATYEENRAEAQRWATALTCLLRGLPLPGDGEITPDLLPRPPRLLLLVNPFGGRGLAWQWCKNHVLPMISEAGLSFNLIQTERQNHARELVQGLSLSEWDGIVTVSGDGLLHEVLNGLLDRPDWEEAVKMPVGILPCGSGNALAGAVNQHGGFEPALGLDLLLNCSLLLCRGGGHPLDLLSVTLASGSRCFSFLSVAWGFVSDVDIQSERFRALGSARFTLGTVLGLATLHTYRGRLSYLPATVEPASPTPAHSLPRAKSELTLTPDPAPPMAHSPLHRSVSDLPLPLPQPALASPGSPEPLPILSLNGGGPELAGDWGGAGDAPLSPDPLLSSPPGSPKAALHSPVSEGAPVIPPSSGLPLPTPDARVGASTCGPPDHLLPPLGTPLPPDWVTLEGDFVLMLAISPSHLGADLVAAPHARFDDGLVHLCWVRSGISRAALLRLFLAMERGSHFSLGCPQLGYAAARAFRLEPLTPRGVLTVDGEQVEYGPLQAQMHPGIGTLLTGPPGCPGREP

[4] = substrate: CCCCCCCCCCCCCCC[C@@H](O)[C@H](CO)NC(=O)CCCCCNc1ccc([N+](=O)[O-])c2nonc12; experiment: HPLC conversion to NBD-C6-Cer; KM from Des1-overexpressing lysates, turnover also with purified Des1-FLAG; format: biochemical, Homo sapiens; conditions: NADPH; iron ((NH4)2Fe(SO4)[…] in purified assay)

T2 sequence (Q9NYA1 whole entry): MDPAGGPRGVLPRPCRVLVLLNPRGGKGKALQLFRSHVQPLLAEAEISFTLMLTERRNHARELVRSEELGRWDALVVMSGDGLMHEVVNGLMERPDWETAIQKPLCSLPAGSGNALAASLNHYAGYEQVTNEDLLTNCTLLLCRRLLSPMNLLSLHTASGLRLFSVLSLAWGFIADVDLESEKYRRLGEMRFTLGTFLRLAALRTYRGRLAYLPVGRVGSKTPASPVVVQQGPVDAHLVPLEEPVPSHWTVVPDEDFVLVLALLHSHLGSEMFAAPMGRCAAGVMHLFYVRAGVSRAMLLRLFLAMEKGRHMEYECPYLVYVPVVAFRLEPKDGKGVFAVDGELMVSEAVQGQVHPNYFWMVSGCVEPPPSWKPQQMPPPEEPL
T3 sequence (P00167 2-134 partner, one chain of several): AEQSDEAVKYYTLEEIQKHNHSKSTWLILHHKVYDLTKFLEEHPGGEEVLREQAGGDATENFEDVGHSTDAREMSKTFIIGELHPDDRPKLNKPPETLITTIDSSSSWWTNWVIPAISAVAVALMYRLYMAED

Cc1ncc(CO)c(C)c1O [DOP, 4-deoxypyridoxine]
fluorogenic S1P lyase assay in overexpressing lysate, 1.25 mM DOP (S1P lyase): known S1P lyase inhibitors 4-deoxypyridoxine and FTY720 both showed inhibition of S1P lyase activity

Cc1nn(C)c2nc(NNC(=O)Nc3c(Cl)cncc3Cl)cc(C(C)C)c12 [JTE-013]
IC50 [1]: 25.1 ± 2.7 µM
Ki [2]: 9.2 ± 0.8 µM
IC50 [3]: 4.3 ± 0.5 µM

B1: dihydroceramide desaturase 1 (Des1) (Homo sapiens) (protein)
chain: GSRVSREDFEWVYTDQPHADRRREILAKYPEIKSLMKPDPNLIWIIIMMVLTQLGAFYIVKDLDWKWVIFGAYAFGSCINHSMTLAIHEIAHNAAFGNCKAMWNRWFGMFANLPIGIPYSISFKRYHMDHHRYLGADGVDVDIPTDFEGWFFCTAFRKFIWVILQPLFYAFRPLFINPKPITYLEVINTVAQVTFDILIYYFLGIKSLVYMLAASLLGLGLHPISGHFIAEHYMFLKGHETYSYYGPLNLLTFNVGYHNEHHDFPNIPGKSLPLVRKIAAEYYDNLPHYNSWIKVLYDFVMDDTISPYSRMKRHQKGEMVLE
notes: Des1-FLAG (C-terminal FLAG), expressed in HEK293T cells; with cytochrome B5 (CYB5)
Km [4]: 0.3 µM
